How the values were obtained:
Format in all cases: cell-based
[1] = test system: Pseudomonas aeruginosa ATCC#33988; experiment: Microbial testing in biodiesel fuel, plate count; details: no biocide
[2] = test system: Hormoconis resinae ATCC#20495; experiment: Microbial testing in biodiesel fuel, plate count; details: no biocide
[3] = test system: mixed inoculum (Ps. aeruginosa, Y. tropicalis, H. resinae); experiment: Microbial resistance of biodiesel fuel, overall statements; details: absence of biocide

Structure (SMILES): CCCCCCCC/C=C\CCCCCCCC(=O)O [Oleic Acid, oleic acid]
- Bacteria (Ps. aeruginosa) count ([1]; additive 500 ppm, Week 1): 7.80E+05 Bact/ml
- Bacteria (Ps. aeruginosa) count ([1]; additive 500 ppm, Week 2): 8.80E+05 Bact/ml
- Bacteria (Ps. aeruginosa) count ([1]; additive 500 ppm, Week 3): 7.40E+05 Bact/ml
- Bacteria (Ps. aeruginosa) count ([1]; additive 500 ppm, Week 4): 8.00E+05 Bact/ml
- Bacteria (Ps. aeruginosa) count ([1]; additive 1500 ppm, Week 1): 5.00E+04 Bact/ml
- Bacteria (Ps. aeruginosa) count ([1]; additive 1500 ppm, Week 2): 2.00E+05 Bact/ml
- Bacteria (Ps. aeruginosa) count ([1]; additive 1500 ppm, Week 3): 1.30E+05 Bact/ml
- Bacteria (Ps. aeruginosa) count ([1]; additive 1500 ppm, Week 4): 3.20E+05 Bact/ml
- Mold (H. resinae) count ([2]; additive 500 ppm, Week 1): 1.70E+05 Mold/ml
- Mold (H. resinae) count ([2]; additive 500 ppm, Week 2): 6.00E+05 Mold/ml
- Mold (H. resinae) count ([2]; additive 500 ppm, Week 3): 8.20E+05 Mold/ml
- Mold (H. resinae) count ([2]; additive 500 ppm, Week 4): 7.80E+03 Mold/ml
- Mold (H. resinae) count ([2]; additive 1500 ppm, Week 1): 6.40E+04 Mold/ml
- Mold (H. resinae) count ([2]; additive 1500 ppm, Week 2): 7.70E+05 Mold/ml
- Mold (H. resinae) count ([2]; additive 1500 ppm, Week 3): 6.00E+05 Mold/ml
- Mold (H. resinae) count ([2]; additive 1500 ppm, Week 4): 9.80E+03 Mold/ml
- effect on microbial resistance of biodiesel [3]: no effect

Source: patent US8546386B2, “Corrosion and microbial control in hydrocarbonaceous compositions” (Dow Global Technologies LLC, priority 2008, dated 2013)
